Conditions: Liquid, Gas chromatography

CCCCCCCC/C=C\CCCOC(C)=O [(Z)-tridec-4-enyl acetate]
Conditions | vapor or sublimation pressure [kPa]
298 K | 0.00012
310 K | 0.00042
320 K | 0.0011
330 K | 0.0028
340 K | 0.0065
350 K | 0.0142
360 K | 0.029
370 K | 0.058
380 K | 0.11
390 K | 0.2
400 K | 0.34
410 K | 0.57
420 K | 0.92
430 K | 1.5
440 K | 2.2
450 K | 3.3
460 K | 4.8
470 K | 6.9
480 K | 9.6
490 K | 13
500 K | 18

CC/C=C/C=C/CCCCCCCCOC(C)=O [(9E,11E)-tetradeca-9,11-dienyl acetate]
Conditions | vapor or sublimation pressure [kPa]
298.15 K | 1.5e-05
310 K | 6.3e-05
320 K | 0.00019
330 K | 0.00051
340 K | 0.0013
350 K | 0.0031
360 K | 0.007
370 K | 0.015
380 K | 0.03
390 K | 0.058
400 K | 0.11
410 K | 0.19
420 K | 0.33
430 K | 0.54
440 K | 0.87
450 K | 1.4
460 K | 2.1
470 K | 3
480 K | 4.4
490 K | 6.2
500 K | 8.6

CCCC/C=C\CCCCCCCCCCCCOC(C)=O [(Z)-octadec-13-en-1-yl acetate]
Conditions | vapor or sublimation pressure [kPa]
298.15 K | 4.1e-07
310 K | 2.2e-06
320 K | 8.2e-06
330 K | 2.7e-05
340 K | 8.3e-05
350 K | 0.00023
360 K | 0.00061
370 K | 0.0015
380 K | 0.0034
390 K | 0.0074
400 K | 0.015
410 K | 0.03
420 K | 0.056
430 K | 0.1
440 K | 0.18
450 K | 0.3
460 K | 0.48
470 K | 0.76
480 K | 1.2
490 K | 1.7
500 K | 2.5

CCOC(=O)/C=C(C)/C=C/C[C@@H](C)CCCC(C)C [ethyl (S,2E,4E)-3,7,11-trimethyldodeca-2,4-dienoate]
Conditions | vapor or sublimation pressure [kPa]
298.15 K | 1.4e-05
310 K | 5.7e-05
320 K | 0.00017
330 K | 0.00047
340 K | 0.0012
350 K | 0.0029
360 K | 0.0065
370 K | 0.014
380 K | 0.028
390 K | 0.054
400 K | 0.1
410 K | 0.18
420 K | 0.3
430 K | 0.5
440 K | 0.81
450 K | 1.3
460 K | 1.9
470 K | 2.8
480 K | 4.1
490 K | 5.8
500 K | 8

CC/C=C/CCCCCCCCCCOC(C)=O [(E)-tetradec-11-enyl acetate]
Conditions | vapor or sublimation pressure [kPa]
298.15 K | 2.8e-05
310 K | 0.00011
320 K | 0.00032
330 K | 0.00086
340 K | 0.0021
350 K | 0.0049
360 K | 0.011
370 K | 0.022
380 K | 0.044
390 K | 0.084
400 K | 0.15
410 K | 0.27
420 K | 0.45
430 K | 0.73
440 K | 1.2
450 K | 1.8
460 K | 2.7
470 K | 3.9
480 K | 5.6
490 K | 7.8
500 K | 11

CCC/C=C\CCCCCCCOC(C)=O [(Z)-dodec-8-enyl acetate]
Conditions | vapor or sublimation pressure [kPa]
298 K | 0.00027
310 K | 0.00091
320 K | 0.0023
330 K | 0.0056
340 K | 0.013
350 K | 0.027
360 K | 0.053
370 K | 0.1
380 K | 0.19
390 K | 0.33
400 K | 0.56
410 K | 0.93
420 K | 1.5
430 K | 2.3
440 K | 3.5
450 K | 5.1
460 K | 7.3
470 K | 10
480 K | 14.1
490 K | 19
500 K | 25

C#CCOC(=O)/C=C(C)/C=C/CC(C)CCCC(C)C (configuration not stated) [prop-2-ynyl (2E,4E)-3,7,11-trimethyldodeca-2,4-dienoate]
Conditions | vapor or sublimation pressure [kPa]
298.15 K | 4.2e-06
310 K | 1.9e-05
320 K | 6.1e-05
330 K | 0.00018
340 K | 0.00049
350 K | 0.0012
360 K | 0.0029
370 K | 0.0065
380 K | 0.014
390 K | 0.028
400 K | 0.053
410 K | 0.098
420 K | 0.17
430 K | 0.29
440 K | 0.49
450 K | 0.78
460 K | 1.2
470 K | 1.8
480 K | 2.7
490 K | 3.9
500 K | 5.5

— the NIST ThermoML archive (doi:10.1021/acs.jced.5b00892)
